Key:
[1] = system: SW1222 tumor (same animal model); details: 24 h p.i.; 1.85-8.8 MBq, 10-50 pmol; cited from earlier work
[2] = system: SW1222 xenografts (anti-GPA33 PRIT); experiment: Optimized PRIT+[^177Lu]LuDOTA-Bn including dextran-CA (Cheal et al. 2016): dosimetry and therapy; format: in vivo, mice; details: with dextran-CA; bone marrow as dose-limiting organ
Excerpt: See Cheal et al., Eur J Nucl Med Mol Imaging 43: 925 (2016). […] Cheal et al., Eur J Nucl Med Mol Imaging 43: 925 (2016).
Based on human normal-tissue radiation dose tolerance estimates derived from clinical observations (Marks, et al., Int J Radiat Oncol Biol Phys. 76:S10-9 (2010)) the maximum tolerated doses (MTDs) are 250 cGy for bone marrow, 1,500 cGy for lung, 3,000 cGy for liver, and 2,000 cGy for kidney. […] At this activity, the estimated absorbed dose delivered to tumor would be 18,292 cGy (183 Gy), with 250 cGy to blood (marrow) and 1,473 cGy to kidney.

[3] = system: SW1222 xenografts (anti-GPA33 PRIT); details: with dextran-CA, cited from earlier work
[4] = system: GPA33-expressing SW1222 xenografts; experiment: Absorbed dose estimates for PRIT+[^177Lu]LuDOTA-Bn including dendron-CA CCA-16-DOTA-Y^3+; format: in vivo, nude mice; details: with dendron-CA; bone marrow as dose-limiting organ
Procedure: Absorbed dose estimates for PRIT+[^177Lu]LuDOTA-Bn including dendron-CA CCA-16-DOTA-Y^3+: In order to calculate absorbed doses for PRIT+[[…]]LuDOTA-Bn including dendron-CA (the clearing agent of the present technology), groups of nude mice bearing GPA33-expressing SW1222 xenografts (n=5/group) were injected i.v. with the BsAb huA33-C825 (250 μg; 1.19 nmol) 28 h prior and i.v. with dendron-clearing agent CCA-16-DOTA-Y^3+ (25 μg; 2.76 nmol) 4 h prior to administration of [^177Lu]LuDOTA-Bn (20 pmol, 3.7 MBq [100 μCi]). These mice were sacrificed at 1, 4, 24, or 48 h p.i. of [^177Lu]LuDOTA-Bn for biodistribution assay. For each tissue, the non-decay-corrected time-activity concentration data were fitted using Excel to a 1-component, 2-component, or more complex exponential function as appropriate, and analytically integrated to yield the cumulated activity concentration per unit administered activity (MBq-h/g per MBq). The ^177Lu equilibrium dose constant for non-penetrating radiations (8.49 g-cGy/MBq-h) was used to estimate the tumor-to-tumor and select organ-to-organ self-absorbed doses, assuming complete local absorption of the ^177Lu beta rays only, and ignoring the gamma ray and non-self dose contributions.

Q: Which mean tumor uptake [1] does the source give for “^177Lu-aminobenzylDOTA [[^177Lu]LuDOTA-Bn]” here?
A: Its mean tumor uptake is roughly 8 % ID/g.

Q: And the “maximum tolerated pretargeted activity” value [2]?
A: The value was 278 MBq.

Q: What about the CR frequency ([3]; 111.0 MBq delivered in a fractionated dose strategy) of the same substance?
A: The CR frequency was 100%.

Q: What about the “survival beyond 140 days” value ([3]; 111.0 MBq fractionated) of the same substance?
A: The value was “two of nine mice”.

Q: And the treatment-related toxicity ([3]; effective treatment)?
A: Its treatment-related toxicity is “no major treatment-related toxicities observed”.

Q: What about the “maximum tolerated pretargeted activity” value [4] of the same substance?
A: Its value is 21 MBq.

Reference: US11413354B2, “N-acetylgalactosamino dendron-clearing agent for dota-pretargeted radioimmunotherapy” (priority 2018, dated 2022)
